Where two headings read alike, the source gives them in different places.
Columns and labels:
[1] = system: secondary alcohol dehydrogenase; assay: Oxidation of secondary alcohols by soluble extracts (NAD+ reduction at 340 nm); format: biochemical, Arthrobacter sp. (CRL 60 P1) NRRL B-11,315; details: substrate of soluble extracts, pH 8.0, 100% = 22 nmoles of NAD+ reduced per minute per mg of protein
Protocol: (§1) Cell suspensions of the microorganism strains identified in Table XII grown on the indicated growth substrate were disrupted with a wave energy ultrasonic oscillator Model W201 (Wave Energy System, Inc., Newton, Pa) and centrifuged at 30,000 x g for 30 min. The supernatant solution (cell extracts) was used for the oxidation of secondary alcohols. Secondary alcohol dehydrogenase activity was measured spectrophotometrically at 340 nm with oxidized nicotinamide adenine dinucleotide (NAD^+) as an electron acceptor.
(§2) The initial reaction mixture, in a total volume of 3.0 ml, consisted of 50mM phosphate buffer of pH 8.0, 5 µ moles of NAD^+, and cell extract.

alkane monooxygenase = assay: Epoxidation of alkenes and styrene by soluble extracts; format: biochemical, Brevibacterium sp. (CRL 56 P6Y) NRRL B-11,319
Protocol: The microorganism Brevibacterium sp. […] The fermentor was inoculated with 2 liters of a culture grown in flasks.
The cells thus grown were washed twice with 25 mM potassium phosphate buffer pH 7.0 and suspended in the same buffer solution containing 5mM MgCl2 and deoxyribonuclease (0.05 mg/ml). […] Disintegrated cell suspensions were centrifuged at 15,000 x g for 15 min. to remove unbroken cells. The supernatant solution was then centrifuged at 40,000 x g for 60 minutes and the supernatant solution therefrom was again centrifuged at 80,000 x g for 60 minutes, yielding the soluble fraction.
Several 3-ml vials at 4°C were charged with 0.2 ml of a reaction mixture consisting of 10 µmoles potassium phosphate buffer pH 7.0, 4 µ cmoles NADH2, and the soluble enzyme fraction obtained above. The gaseous phase of the vials was evacuated by vacuum and replaced with a gas mixture of gaseous oxidation substrate and oxygen (1:1 v/v); in the case of a liquid oxidation substrate, 2 µl of substrate was added. The vials were incubated at 35 °C on a reciprocating water bath shaker at 50 oscillations per minute.
The rate of epoxidation of alkenes and styrene was measured by injecting 1-2 µ1 samples of the reaction mixture into a gas chromatograph immediately after addition of substrate (zero time) and after 5 and 10 min. of incubation. Specific activities were expressed as […] of product formed per 10 min. per mg of protein. With each substrate, control experiments were conducted in the absence of NADH2, in the absence of oxygen, and using boiled extracts.

[2] = system: Propane-Oxidizing Activity of Arthrobacter sp. (CRL 60 P1) NRRL B-11,315; assay: Effect of inhibitors on propane-oxidizing activity (acetone production) of propane-grown cell suspensions; format: cell-based; details: for inhibition at 1000 µM: Arthrobacter, NRRLB11, 0.25 h
Protocol: (§3) The pH of the nutrient medium was adjusted to 7.0 by the addition of acid or base and 50 ml samples of the nutrient medium were charged into a plurality of 300 ml shake flasks. The shake flasks were inoculated with an innoculating loop of cells from an agar plate containing homogeneous colonies of the microorganisms on the plate (the purity of the isolates was confirmed by microscopic examination). […] In the case of growth on liquid substrates (at 0.3%, v/v), the gaseous phase of the flasks was air. The inoculated flasks were sealed air tight and were incubated on a rotary shaker at 250 rpm and at 30°C for two days until turbidity in the medium had developed.
(§4) The cells were harvested by centrifugation at 12,000 x g. at 4 °C for 15 minutes. The cell pellet was washed twice with a 50 mM phosphate buffer at a pH of 7.0. The washed cells were then suspended in a 50mM phosphate buffer at pH 7.0.
(§5) The gaseous phase of the vials was removed with vacuum and then was replaced with a gas mixture of the oxidative substrate (e.g. ethane) and oxygen at a 1:1 v/v ratio. If a liquid substrate was employed, 5-10 µl of substrate was placed in the vials. […] Samples (3 µl) were withdrawn periodically with a microsyringe and the products were analyzed by gas chromatography (ionization flame detector column) at a column temperature of 100°C to 180 °C and at a carrier gas flow rate of 30 or 35 ml/ min of helium. The various products were identified by retention time comparisons and co-chromatography with authentic standards. […] Protein in the cell suspensions was determined by the method described by […].
(§6) All inhibitors were added at 1mM concentration and the cell suspensions were incubated for 15 min. at 4 °C.

[3] = system: secondary alcohol dehydrogenase; assay: Effect of inhibitors on oxidation of 2-butanol by cell extracts (NAD+ reduction at 340 nm); format: biochemical, Arthrobacter sp. (CRL 60 P1) NRRL B-11,315
Protocol: as §1, §2
All inhibitors were tested at lmM concentration and incubated with the soluble extracts in the reaction mixture for 15 min at 0°C. Otherwise the procedure described above was followed.

[4] = system: Propylene-Oxidizing Activity of Arthrobacter sp. (CRL 60 P1) NRRL B-11,315; assay: Effect of inhibitors on propylene-oxidizing activity (propylene oxide formation) of propane-grown cell suspensions; format: cell-based; details: for inhibition at 1000 µM: Arthrobacter, NRRLB11, 0.25 h
Protocol: as §3, §4, §5, §6

[5] = system: Cell-Free Particulate Fraction of Arthrobacter sp. (CRL 60 P1) NRRL B-11,315; assay: Oxidation of alkenes and alkanes by cell-free particulate P(40) fraction; format: biochemical
Protocol: (§9) Cells were harvested during exponential growth by centrifugation at 12,000 x g for 15 min. at 4°C. Cells were washed twice with a 25 mM potassium phosphate buffer of pH 7.0 containing 5mM MgCl2 and were then suspended in the same buffer. The resulting cell suspensions at 4°C were disintegrated by a single passage through a French pressure cell (45 mPa) and centrifuged at 5,000 x g for 15 min to remove unbroken bacteria. […] The particulate fraction [P(40)] was suspended in the same buffer as described above and homogenized at 4°C.
(§10) A 1.0 ml sample containing the particulate or soluble fraction, 10 µ moles NADH and 150 mM potassium phosphate buffer at pH 7.0 containing 3 µ moles MgCl2 was put into separate 10 ml vials at 4°C which were sealed with a rubber cap. The gaseous phase of the vials was removed by vacuum and replaced with a gas mixture of the indicated alkane or alkene as substrate and oxygen at a 1:1 v/v ratio. The vials were then incubated at 30°C on a rotary shaker at 200 rpm for 10 minutes.
Reactions were linear during the first 15 minutes of incubation as measured by detection of product by gas chromatography.

[6] = system: Cell-Free Particulate P(40) Fraction of Arthrobacter sp. (CRL 60 P1) NRRL B-11,315
Protocol: as §9, §10

[7] = system: Arthrobacter sp. (CRL 60 Pl) NRRL B-11,315; assay: Effect of propane on oxidation of propylene to propylene oxide by cell suspensions; format: cell-based; details: propane added to cell suspensions epoxidising propylene
Excerpt: (§7) The following summarizes tests conducted on the optimal conditions for the production of propylene oxide from propylene using cell suspensions of propane-grown Arthrobacter sp. (CRL 60 Pl) NRRL B-11,315 as the representative microorganism strain. It will be understood that these are optimal conditions found for one particular strain and one particular substrate, and the invention is not meant to be bound by them. Conversions of propylene can still be obtained using Arthrobacter sp. (CRL 60 Pl) NRRL B-11,315 by deviating from the optimum indicated below, but with lower yields and conversions.
The effect of propane on the oxidation of propylene to propylene oxide was studied to determine if a single enzyme system was responsible for the oxidation of both propane and propylene.

[8] = system: Arthrobacter sp. (CRL 60 Pl) NRRL B-11,335
Protocol: as §5
Arthrobacter sp. […] Ethanol was converted to acetaldehyde (acetyl Co ~A in vivo) by primary alcohol dehydrogenase, yielding 1 mole of NADH, with subsequent oxidation of the intermediate acetyl Co ~A to carbon dioxide, yielding 3 additional moles of NADH.

[9] = system: Arthrobacter sp. (CRL 60 Pl) NRRL B-11,315; assay: Further oxidation of added propylene oxide by viable cell suspensions; format: cell-based; details: 5 µ moles added to viable cell suspension, 30°C
Excerpt: as §7
(§8) To determine if the slower reaction rate after 40-60 min of incubation was due to enzymatic or non-enzymatic oxidation of propylene oxide or due to product inhibition, 5 µ moles of propylene oxide was added to viable and to heat-killed cell suspensions in the presence and absence of propylene, and incubated at 30°C.

[10] = format: physicochemical
Protocol: as §8
[…]. The rate of epoxidation of propylene was found not to vary markedly in the pH range from 5 to 9, with the optimum pH about 7. A 5 A mole sample of propylene oxide was added to heat-killed cell suspensions at pH 5, 7 and 9 to test for non-enzymatic degradation of propylene oxide at these pH values.

[11] = system: Cell-Free Particulate P(40) Fraction of Arthrobacter sp. (CRL 60 P1) NRRL B-11,315; assay: Effect of inhibitors on oxidation of propane and butane by cell-free particulate P(40) fraction
Protocol: as §9, §10

[12] = substrate epoxidised by soluble fraction, NADH2 and oxygen, pH 7.0, 35°C
[13] = inhibitor 1mM, cell suspensions incubated 15 min at 4°C, acetone production by gas chromatography, uninhibited rate 1.5 μ moles/hr/mg of protein
[14] = inhibitor 1mM, incubated with soluble extracts 15 min at 0°C, substrate 2-butanol, uninhibited activity 25 nmoles of NAD+ reduced per min per mg of protein
[15] = inhibitor 1mM, cell suspensions incubated 15 min at 4°C, propylene oxide formation by gas chromatography, uninhibited rate 0.6 μmoles/15 min/mg of protein
[16] = alkene substrate, epoxide product, P(40) fraction, NADH and oxygen, pH 7.0, 30°C

2-Butanol
Rate of Oxidation (%) [1]: 100%

C=CC=C [1,3-Butadiene]
Rate of Product Formation (alkane monooxygenase; [12]): 0.044 μ mole/10 min./mg protein

c1cnc2c(c1)ccc1cccnc12 [1,10-Phenanthroline]
inhibition at 1000 µM [2, 13]: 80% | Inhibition (%) [3, 14]: 80% | inhibition at 1000 µM [4, 15]: 90%

C=CCC [1-Butene]
Rate of Product Formation ([5]; pH 7): 0.216 μ moles/hr/mg protein | Rate of Product Formation (alkane monooxygenase; pH 7): 0.030 μ mole/10 min./mg protein

C=CCCCCC [1-Heptene]
Rate of Product Formation (alkane monooxygenase; pH 7): 0.008 μ mole/10 min./mg protein

C=CCCC [1-Pentene]
Rate of Product Formation [5, 16]: 0.195 μ moles/hr/mg protein | Rate of Product Formation (alkane monooxygenase; [12]): 0.025 μ mole/10 min./mg protein

CCCCCC(C)O (stereo not shown) [2-Heptanol]
Rate of Oxidation (%) [1]: 4%

CCCCC(C)O (stereo not shown) [2-Hexanol]
Rate of Oxidation (%) [1]: 10%

CCCC(C)O (stereo not shown) [2-Pentanol]
Rate of Oxidation (%) [1]: 12%

C=C [Ethylene]
Rate of Product Formation ([5]; pH 7): 0.153 μ moles/hr/mg protein | Rate of Product Formation (alkane monooxygenase; pH 7): 0.040 μ mole/10 min./mg protein

NO [Hydroxylamine]
Inhibition (%) Propane-Oxidizing Activity [2, 13]: 70% | Inhibition (%) Propylene-Oxidizing Activity [4, 15]: 83%

c1c[nH]cn1 [Imidazole]
inhibition at 1000 µM [2, 13]: 80% | inhibition [6]: 80%

C=C(C)C [Isobutene]
Rate of Product Formation (alkane monooxygenase; [12]): 0.046 μ mole/10 min./mg protein

NNC(=O)c1ccncc1 [Isoniazide]
inhibition at 1000 µM [2, 13]: 30% | inhibition at 1000 µM [4, 15]: 35%

CC(C)O [Isopropanol]
Rate of Oxidation (%) [1]: 65%

CCN1C(=O)C=CC1=O [N-Ethylmaleimide]
inhibition at 1000 µM [2, 13]: 70% | Inhibition (%) [3, 14]: 30% | inhibition at 1000 µM [4, 15]: 81%

CCC [Propane]
effect of propane on the oxidation of propylene to propylene oxide [7]: reducing the amount of propylene oxide formed | Rate of Product Formation ([5]; alkane substrate, primary alcohol product (n-propanol, n-butanol), P(40) fraction, NADH and oxygen, pH 7.0, 30°C): 0.600 μ moles/hr/mg protein | Rate of Product Formation ([5]; alkane substrate, secondary alcohol product (2-propanol, 2-butanol), P(40) fraction, NADH and oxygen, pH 7.0, 30°C): 0.300 μ moles/hr/mg protein

C=CC [Propylene]
Rate of Product Formation [5, 16]: 0.360 μ moles/hr/mg protein | Rate of Product Formation (alkane monooxygenase; [12]): 0.052 μ mole/10 min./mg protein

C=Cc1ccccc1 [Styrene]
Rate of Product Formation (alkane monooxygenase; [12]): 0.005 μ mole/10 min./mg protein

CC(=N)S [Thioacetamide]
inhibition at 1000 µM [2, 13]: 60% | inhibition at 1000 µM [4, 15]: 68%

NNC(N)=S [Thiosemicarbazide]
inhibition at 1000 µM [2, 13]: 10% | inhibition at 1000 µM [4, 15]: 12%

NC(N)=S [Thiourea]
inhibition at 1000 µM [2, 13]: 10% | inhibition at 1000 µM [4, 15]: 12%

C/C=C\C [cis-But-2-ene]
Rate of Product Formation (alkane monooxygenase; pH 7): 0.018 μ mole/10 min./mg protein

CCO [ethanol]
Epoxidation Rate (rate of propylene oxide formation) ([8]; 5 μmole ethanol, 1 hr., control 2.5): 2.9 μ mole/0.5 ml. | Epoxidation Rate (rate of propylene oxide formation) ([8]; 5 μmole ethanol, 2 hr., control 3.8): 5.6 μ mole/0.5 ml. | Epoxidation Rate (rate of propylene oxide formation) ([8]; 5 μmole ethanol, 3 hr., control 3.9): 6.5 μ mole/0.5 ml. | Epoxidation Rate (rate of propylene oxide formation) ([8]; 25 μmole ethanol, 1 hr., control 2.5): 2.4 μ mole/0.5 ml. | Epoxidation Rate (rate of propylene oxide formation) ([8]; 25 μmole ethanol, 2 hr., control 3.8): 5.2 μ mole/0.5 ml. | Epoxidation Rate (rate of propylene oxide formation) ([8]; 25 μmole ethanol, 3 hr., control 3.9): 6.5 μ mole/0.5 ml.

O=C(O)c1cc[c]([Hg+])cc1.[OH-] [p-Hydroxymercuribenzoate]
Inhibition (%) Propane-Oxidizing Activity [2, 13]: 35% | Inhibition (%) [3]: 95% | Inhibition (%) Propylene-Oxidizing Activity [4, 15]: 35%

CC1CO1 (stereo not shown) [propylene oxide]
disappearance in propylene oxide [9]: Some disappearance | amount of propylene oxide ([10]; 5 µ moles added to heat-killed cell suspensions, 30°C): remained constant | non-enzymatic degradation of propylene oxide ([10]; heat-killed cell suspensions at pH 5, 7 and 9, one hour of incubation): did not decrease

C/C=C/C [trans-But-2-ene]
Rate of Product Formation (alkane monooxygenase; pH 7): 0.022 μ mole/10 min./mg protein

α,α-Bipyridyl
Inhibition (%) Propane-Oxidizing Activity [2]: 30% | Inhibition (%) Propylene-Oxidizing Activity [4]: 32% | Inhibition (%) [11]: 32%
